Data: ChEMBL document CHEMBL1201862, “PubChem BioAssay data set” (2004)
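Results reflect a 48-hour exposure of cells in 96-well plates to compound at five concentrations. At the GI50, growth is halved.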 Activity calls are given as the source filed them. No stated cut-off is given here; in the data, active = GI50 up to about 1.1 µM and inactive = higher.

Columns and labels:
Assay in all cases: NCI anticancer screen, dose series, 48 h
M14 = system: M14
NCI-H522 = system: NCI-H522
786-0 = system: 786-0
SF-539 = system: SF-539
RPMI-8226 = system: RPMI-8226
SK-OV-3 = system: SK-OV-3
EKVX = system: EKVX
NCI-H23 = system: NCI-H23
SN12C = system: SN12C
NCI-H460 = system: NCI-H460
HCT-15 = system: HCT-15
A549 = system: A549
COLO 205 = system: COLO 205
UACC-62 = system: UACC-62
ACHN = system: ACHN
NCI-H226 = system: NCI-H226
OVCAR-5 = system: OVCAR-5
UO-31 = system: UO-31
KM12 = system: KM12
MDA-MB-435 = system: MDA-MB-435
MDA-N = system: MDA-N
BT-549 = system: BT-549
RXF 393 = system: RXF 393
SNB-19 = system: SNB-19
U-251 = system: U-251
MOLT-4 = system: MOLT-4
SF-268 = system: SF-268
DU-145 = system: DU-145
HCC 2998 = system: HCC 2998
Hs-578T = system: Hs-578T
PC-3 = system: PC-3
HOP-62 = system: HOP-62
NCI/ADR-RES = system: NCI/ADR-RES
SF-295 = system: SF-295
CCRF-CEM = system: CCRF-CEM
MDA-MB-231 = system: MDA-MB-231
HCT-116 = system: HCT-116
OVCAR-3 = system: OVCAR-3
SK-MEL-2 = system: SK-MEL-2
K562 = system: K562
A498 = system: A498
HOP-92 = system: HOP-92
SW-620 = system: SW-620
TK-10 = system: TK-10
CAKI-1 = system: CAKI-1
T47D = system: T47D
LOX IMVI = system: LOX IMVI
HT-29 = system: HT-29
OVCAR-8 = system: OVCAR-8
IGROV-1 = system: IGROV-1
OVCAR-4 = system: OVCAR-4
SK-MEL-5 = system: SK-MEL-5
SR = system: SR
MCF7 = system: MCF7
HL-60 = system: HL-60
UACC-257 = system: UACC-257
SNB-75 = system: SNB-75
Malme-3M = system: Malme-3M
SK-MEL-28 = system: SK-MEL-28

CC1=C(C(=O)NNC(=O)C[N+](C)(C)C)CC(C(=O)NNC(=O)C[N+](C)(C)C)=C(C)N1
GI50 (M14): > 100 µM (inactive)
GI50 (NCI-H522): > 100 µM (inactive)
GI50 (786-0): > 100 µM (inactive)
GI50 (SF-539): > 100 µM (inactive)
GI50 (RPMI-8226): > 100 µM (inactive)
GI50 (SK-OV-3): > 100 µM (inactive)
GI50 (EKVX): > 100 µM (inactive)
GI50 (NCI-H23): > 100 µM (inactive)
GI50 (SN12C): > 100 µM (inactive)
GI50 (NCI-H460): > 100 µM (inactive)
GI50 (HCT-15): > 100 µM
GI50 (A549): > 100 µM (inactive)
GI50 (COLO 205): > 100 µM (inactive)
GI50 (UACC-62): > 100 µM (inactive)
GI50 (ACHN): > 100 µM (inactive)
GI50 (NCI-H226): > 100 µM (inactive)
GI50 (OVCAR-5): > 100 µM (inactive)
GI50 (UO-31): 68.4 µM (inactive)
GI50 (KM12): > 100 µM (inactive)
GI50 (MDA-MB-435): > 100 µM (inactive)
GI50 (MDA-N): > 100 µM (inactive)
GI50 (BT-549): > 100 µM (inactive)
GI50 (RXF 393): > 100 µM (inactive)
GI50 (SNB-19): > 100 µM (inactive)
GI50 (U-251): > 100 µM (inactive)
GI50 (MOLT-4): > 100 µM (inactive)
GI50 (SF-268): > 100 µM (inactive)
GI50 (DU-145): > 100 µM (inactive)
GI50 (HCC 2998): > 100 µM (inactive)
GI50 (Hs-578T): > 100 µM (inactive)
GI50 (PC-3): > 100 µM (inactive)
GI50 (HOP-62): > 100 µM (inactive)
GI50 (NCI/ADR-RES): > 100 µM (inactive)
GI50 (SF-295): > 100 µM (inactive)
GI50 (CCRF-CEM): 21.8 µM (inactive)
GI50 (MDA-MB-231): > 100 µM (inactive)
GI50 (HCT-116): > 100 µM (inactive)
GI50 (OVCAR-3): > 100 µM (inactive)
GI50 (SK-MEL-2): > 100 µM (inactive)
GI50 (K562): > 100 µM (inactive)
GI50 (A498): 61.7 µM (inactive)
GI50 (HOP-92): 71.8 µM (inactive)
GI50 (SW-620): > 100 µM (inactive)
GI50 (TK-10): > 100 µM (inactive)
GI50 (CAKI-1): > 100 µM (inactive)
GI50 (T47D): 63.2 µM (inactive)
GI50 (LOX IMVI): > 100 µM (inactive)
GI50 (HT-29): > 100 µM (inactive)
GI50 (OVCAR-8): > 100 µM (inactive)
GI50 (IGROV-1): > 100 µM (inactive)
GI50 (OVCAR-4): > 100 µM (inactive)
GI50 (SK-MEL-5): > 100 µM (inactive)
GI50 (SR): 35.6 µM (inactive)
GI50 (MCF7): > 100 µM (inactive)
GI50 (HL-60): 24.9 µM (inactive)
GI50 (UACC-257): > 100 µM (inactive)

CCOC(=O)c1cnc(N(C)C)nc1SC(=N)N
GI50 (M14): > 100 µM (inactive)
GI50 (NCI-H522): > 100 µM (inactive)
GI50 (786-0): > 100 µM (inactive)
GI50 (SF-539): > 100 µM (inactive)
GI50 (RPMI-8226): > 100 µM (inactive)
GI50 (SK-OV-3): > 100 µM (inactive)
GI50 (EKVX): > 100 µM (inactive)
GI50 (NCI-H23): > 100 µM (inactive)
GI50 (SN12C): > 100 µM (inactive)
GI50 (NCI-H460): > 100 µM (inactive)
GI50 (HCT-15): > 100 µM
GI50 (A549): > 100 µM (inactive)
GI50 (COLO 205): > 100 µM (inactive)
GI50 (UACC-62): > 100 µM (inactive)
GI50 (ACHN): > 100 µM (inactive)
GI50 (NCI-H226): > 100 µM (inactive)
GI50 (OVCAR-5): > 100 µM (inactive)
GI50 (KM12): > 100 µM (inactive)
GI50 (MDA-MB-435): > 100 µM (inactive)
GI50 (MDA-N): > 100 µM (inactive)
GI50 (BT-549): > 100 µM (inactive)
GI50 (RXF 393): > 100 µM (inactive)
GI50 (SNB-19): > 100 µM (inactive)
GI50 (SNB-75): > 100 µM (inactive)
GI50 (U-251): > 100 µM (inactive)
GI50 (MOLT-4): 49.2 µM (inactive)
GI50 (SF-268): > 100 µM (inactive)
GI50 (DU-145): > 100 µM (inactive)
GI50 (Hs-578T): > 100 µM (inactive)
GI50 (PC-3): > 100 µM (inactive)
GI50 (HOP-62): > 100 µM (inactive)
GI50 (NCI/ADR-RES): > 100 µM (inactive)
GI50 (SF-295): > 100 µM (inactive)
GI50 (MDA-MB-231): > 100 µM (inactive)
GI50 (HCT-116): > 100 µM (inactive)
GI50 (Malme-3M): > 100 µM (inactive)
GI50 (OVCAR-3): > 100 µM (inactive)
GI50 (SK-MEL-2): > 100 µM (inactive)
GI50 (K562): > 100 µM (inactive)
GI50 (A498): > 100 µM (inactive)
GI50 (HOP-92): > 100 µM (inactive)
GI50 (SW-620): > 100 µM (inactive)
GI50 (TK-10): > 100 µM (inactive)
GI50 (CAKI-1): > 100 µM (inactive)
GI50 (T47D): > 100 µM (inactive)
GI50 (LOX IMVI): > 100 µM (inactive)
GI50 (SK-MEL-28): > 100 µM (inactive)
GI50 (HT-29): > 100 µM (inactive)
GI50 (OVCAR-8): > 100 µM (inactive)
GI50 (IGROV-1): > 100 µM (inactive)
GI50 (OVCAR-4): > 100 µM (inactive)
GI50 (SK-MEL-5): > 100 µM (inactive)
GI50 (SR): 35.6 µM (inactive)
GI50 (MCF7): > 100 µM (inactive)
GI50 (UACC-257): > 100 µM (inactive)

O=C(Nc1nn(C(=O)c2ccc(Cl)cc2)c(=O)s1)c1ccc(Cl)cc1
GI50 (M14): > 100 µM (inactive)
GI50 (NCI-H522): > 100 µM (inactive)
GI50 (786-0): > 100 µM (inactive)
GI50 (SK-OV-3): > 100 µM (inactive)
GI50 (EKVX): 94.8 µM (inactive)
GI50 (NCI-H23): > 100 µM (inactive)
GI50 (SN12C): > 100 µM (inactive)
GI50 (NCI-H460): > 100 µM (inactive)
GI50 (HCT-15): > 100 µM
GI50 (A549): > 100 µM (inactive)
GI50 (COLO 205): > 100 µM (inactive)
GI50 (UACC-62): > 100 µM (inactive)
GI50 (ACHN): > 100 µM (inactive)
GI50 (NCI-H226): > 100 µM (inactive)
GI50 (OVCAR-5): > 100 µM (inactive)
GI50 (UO-31): > 100 µM (inactive)
GI50 (KM12): > 100 µM (inactive)
GI50 (MDA-MB-435): > 100 µM (inactive)
GI50 (MDA-N): > 100 µM (inactive)
GI50 (BT-549): > 100 µM (inactive)
GI50 (RXF 393): 46.9 µM (inactive)
GI50 (SNB-19): > 100 µM (inactive)
GI50 (U-251): > 100 µM (inactive)
GI50 (MOLT-4): > 100 µM (inactive)
GI50 (SF-268): > 100 µM (inactive)
GI50 (DU-145): > 100 µM (inactive)
GI50 (HCC 2998): > 100 µM (inactive)
GI50 (Hs-578T): > 100 µM (inactive)
GI50 (PC-3): > 100 µM (inactive)
GI50 (HOP-62): > 100 µM (inactive)
GI50 (NCI/ADR-RES): > 100 µM (inactive)
GI50 (SF-295): > 100 µM (inactive)
GI50 (CCRF-CEM): 76.4 µM (inactive)
GI50 (MDA-MB-231): > 100 µM (inactive)
GI50 (HCT-116): > 100 µM (inactive)
GI50 (Malme-3M): > 100 µM (inactive)
GI50 (OVCAR-3): > 100 µM (inactive)
GI50 (K562): 77.8 µM (inactive)
GI50 (A498): > 100 µM (inactive)
GI50 (HOP-92): > 100 µM (inactive)
GI50 (SW-620): > 100 µM (inactive)
GI50 (TK-10): > 100 µM (inactive)
GI50 (CAKI-1): > 100 µM (inactive)
GI50 (T47D): > 100 µM (inactive)
GI50 (LOX IMVI): > 100 µM (inactive)
GI50 (SK-MEL-28): > 100 µM (inactive)
GI50 (HT-29): > 100 µM (inactive)
GI50 (OVCAR-8): > 100 µM (inactive)
GI50 (IGROV-1): > 100 µM (inactive)
GI50 (OVCAR-4): > 100 µM (inactive)
GI50 (SK-MEL-5): > 100 µM (inactive)
GI50 (SR): > 100 µM (inactive)
GI50 (MCF7): > 100 µM (inactive)
GI50 (HL-60): > 100 µM (inactive)
GI50 (UACC-257): > 100 µM (inactive)
